From ChEMBL document CHEMBL5725892, “Triazolo[4,5-D]pyrimidine derivatives” (2017)

Biological target: Cannabinoid receptor 2 (Homo sapiens, UniProt P34972)
Assay: cAMP Assay: CHO cells expressing human CB1 or CB2 receptors are seeded 17-24 hours prior to the experiment 50.000 cells per well in a black 96 well plate with flat clear bottom (Corning Costar #3904) in DMEM (Invitrogen No. 31331), 1×HT supplement, with 10% fetal calf serum and incubated at 5% CO2 and 37° C. in a humidified incubator. The growth medium was exchanged with Krebs Ringer Bicarbonate buffer with 1 mM IBMX and incubated at 30° C. for 30 min. Compounds were added to a final assay volume of 100 μl and incubated for 30 min at 30° C. Using the cAMP-Nano-TRF detection kit the assay (Roche Diagnostics) was stopped by the addition of 50 μl lysis reagent (Tris, NaCl, 1.5% Triton X100, 2.5% NP40, 10% NaN3) and 50 μl detection solutions (20 μM mAb Alexa700-cAMP 1:1, and 48 μM Ruthenium-2-AHA-cAMP) and shaken for 2 h at room temperature. The time-resolved energy transfer is measured by a TRF reader (Evotec Technologies GmbH), equipped with a ND:YAG laser as excitation source. The plate is measured twice with the excitation at 355 nm and at the emission with a delay of 100 ns and a gate of 100 ns, total exposure time 10 s at 730 (bandwidth 30 nm) or 645 nm (bandwidth 75 nm), respectively. […]

Sequence of Cannabinoid receptor 2 (P34972 whole entry): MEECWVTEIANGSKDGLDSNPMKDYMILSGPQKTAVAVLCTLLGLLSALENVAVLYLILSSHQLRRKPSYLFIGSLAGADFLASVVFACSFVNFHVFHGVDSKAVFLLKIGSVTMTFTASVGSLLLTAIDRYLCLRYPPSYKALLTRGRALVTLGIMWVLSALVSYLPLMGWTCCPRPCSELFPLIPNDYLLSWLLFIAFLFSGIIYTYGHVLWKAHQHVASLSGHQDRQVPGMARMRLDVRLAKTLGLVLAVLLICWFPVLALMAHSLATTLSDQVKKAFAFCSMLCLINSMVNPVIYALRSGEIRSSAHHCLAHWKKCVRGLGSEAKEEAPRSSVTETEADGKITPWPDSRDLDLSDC

In the case of CC(=O)N[C@H]1CCN(c2nc(O[C@@H](C)C(F)(F)F)nc3c2nnn3Cc2ccccc2C(F)(F)F)C1, the EC50 is reported as 78.9 nM.
